What was measured:
Assay in all cases: relative viability (nuclei count vs DMSO), 5 days (fraction); higher = more cells survive
KN-93 + OSI-027 = compound: CN(C/C=C/C1=CC=C(C=C1)Cl)CC2=CC=CC=C2N(CCO)S(=O)(=O)C3=CC=C(C=C3)OC [KN-93] + COc1cccc2cc(-c3nc([C@H]4CC[C@H](C(=O)O)CC4)n4ncnc(N)c34)[nH]c12 [OSI-027] (partner 0.5 µM)
Procedure, shortened: (§1)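 Cells from lung cancer lines were seeded into 1536-well plates and, one day later, dosed by pin tool. Treatments were either a single drug or a fixed dose of an anchor drug with five library-drug doses (not always all listed) in √10 steps. After 5 days, nuclei were stained in a one-step fixation (final 0.05% Triton X-100, 1% formaldehyde, 1 ug/ml Hoechst) and counted on 4× images, and relative viability is the treated-to-vehicle nuclei ratio, as the median of duplicate plates.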

KN-93 + Navitoclax = compound: CN(C/C=C/C1=CC=C(C=C1)Cl)CC2=CC=CC=C2N(CCO)S(=O)(=O)C3=CC=C(C=C3)OC [KN-93] + CC1(C)CCC(c2ccc(Cl)cc2)=C(CN2CCN(c3ccc(C(=O)NS(=O)(=O)c4ccc(N[C@H](CCN5CCOCC5)CSc5ccccc5)c(S(=O)(=O)C(F)(F)F)c4)cc3)CC2)C1 [Navitoclax] (partner 0.5 µM)
Procedure, shortened: as §1

KN-93 + Olaparib = compound: CN(C/C=C/C1=CC=C(C=C1)Cl)CC2=CC=CC=C2N(CCO)S(=O)(=O)C3=CC=C(C=C3)OC [KN-93] + O=C(c1cc(Cc2n[nH]c(=O)c3ccccc23)ccc1F)N1CCN(C(=O)C2CC2)CC1 [Olaparib] (partner 8 µM)
Procedure, shortened: as §1

KN-93 + Tozasertib = compound: CN(C/C=C/C1=CC=C(C=C1)Cl)CC2=CC=CC=C2N(CCO)S(=O)(=O)C3=CC=C(C=C3)OC [KN-93] + Cc1cc(Nc2cc(N3CCN(C)CC3)nc(Sc3ccc(NC(=O)C4CC4)cc3)n2)n[nH]1 [Tozasertib] (partner 0.1 µM)
Procedure, shortened: as §1

KN-93 + Trametinib = compound: CN(C/C=C/C1=CC=C(C=C1)Cl)CC2=CC=CC=C2N(CCO)S(=O)(=O)C3=CC=C(C=C3)OC [KN-93] + CC(=O)Nc1cccc(-n2c(=O)n(C3CC3)c(=O)c3c(Nc4ccc(I)cc4F)n(C)c(=O)c(C)c32)c1 [Trametinib] (partner 0.02 µM)
Procedure, shortened: as §1

| Cell Line | relative viability (KN-93 + OSI-027; first compound 0.08 µM) | relative viability (KN-93 + OSI-027; first compound 0.253 µM) | relative viability (KN-93 + OSI-027; first compound 2.53 µM) | relative viability (KN-93 + OSI-027; first compound 8 µM) | relative viability (KN-93 + Navitoclax; first compound 0.08 µM) | relative viability (KN-93 + Navitoclax; first compound 0.253 µM) | relative viability (KN-93 + Navitoclax; first compound 2.53 µM) | relative viability (KN-93 + Navitoclax; first compound 8 µM) | relative viability (KN-93 + Olaparib; first compound 0.08 µM) | relative viability (KN-93 + Olaparib; first compound 0.253 µM) | relative viability (KN-93 + Olaparib; first compound 2.53 µM) | relative viability (KN-93 + Olaparib; first compound 8 µM) | relative viability (KN-93 + Tozasertib; first compound 0.08 µM) | relative viability (KN-93 + Tozasertib; first compound 0.253 µM) | relative viability (KN-93 + Tozasertib; first compound 2.53 µM) | relative viability (KN-93 + Tozasertib; first compound 8 µM) | relative viability (KN-93 + Trametinib; first compound 0.08 µM) | relative viability (KN-93 + Trametinib; first compound 0.253 µM) | relative viability (KN-93 + Trametinib; first compound 2.53 µM) | relative viability (KN-93 + Trametinib; first compound 8 µM) |
| --- | --- | --- | --- | --- | --- | --- | --- | --- | --- | --- | --- | --- | --- | --- | --- | --- | --- | --- | --- | --- |
| NCI-H1666 | 0.882 | 0.834 | 0.993 | 0.857 | 0.863 | 0.799 | 0.982 | 0.863 | 0.726 | 0.716 | 0.702 | 0.762 | 0.599 | 0.662 | 0.57 | 0.454 | 0.899 | 0.788 | 1.07 | 0.716 |
| NCI-H1734 | 0.53 | 0.574 | 0.605 | 0.404 | 0.649 | 0.964 | 0.816 | 0.622 | 0.496 | 0.677 | 0.611 | 0.518 | 0.254 | 0.27 | 0.264 | 0.215 | 0.624 | 0.775 | 0.653 | 0.405 |
| NCI-H1755 | 0.832 | 0.727 | 0.776 | 0.559 | 0.844 | 1.03 | 1.07 | 0.815 | 0.806 | 0.804 | 0.909 | 0.827 | 0.625 | 0.604 | 0.584 | 0.468 | 0.717 | 0.827 | 0.76 | 0.699 |
| NCI-H1793 | 0.242 | 0.245 | 0.261 | 0.152 |  | 0.398 | 0.385 | 0.244 | 0.74 | 0.83 | 0.783 | 0.382 | 0.305 | 0.23 | 0.315 | 0.258 | 0.44 | 0.42 | 0.472 | 0.339 |
| NCI-H1915 | 0.571 | 0.718 | 0.653 | 0.472 | 0.736 | 0.813 | 0.823 | 0.742 | 0.248 | 0.264 | 0.276 | 0.255 | 0.388 | 0.446 | 0.413 | 0.308 | 0.304 | 0.339 | 0.281 | 0.247 |
| NCI-H1944 | 0.403 | 0.376 | 0.383 | 0.31 | 1.09 | 1.01 | 1.04 | 0.896 | 0.356 | 0.378 | 0.401 | 0.334 | 0.269 | 0.221 | 0.257 | 0.218 | 0.419 | 0.385 | 0.432 | 0.328 |
| NCI-H1975 | 0.674 | 0.731 | 0.677 | 0.417 | 0.797 | 1.36 | 1.26 | 0.756 | 0.534 | 0.839 | 0.826 | 0.456 | 0.702 | 0.849 | 0.676 | 0.146 | 0.29 | 0.291 | 0.307 | 0.179 |
| NCI-H1993 | 0.544 | 0.607 | 0.565 | 0.573 | 0.939 | 0.71 | 0.861 | 0.632 | 0.915 | 0.947 | 1.14 | 0.771 | 0.563 | 0.552 | 0.593 | 0.519 | 0.547 | 0.542 | 0.498 | 0.501 |
| NCI-H2009 | 0.608 | 0.629 | 0.535 | 0.248 | 1.16 | 1.21 | 1.23 | 0.869 | 0.683 | 0.815 | 0.656 | 0.528 | 0.689 | 0.764 | 0.692 | 0.493 | 0.319 | 0.283 | 0.271 | 0.188 |
| NCI-H2023 | 0.361 | 0.359 | 0.345 | 0.211 | 1 | 1.22 | 1.05 | 0.789 | 0.454 | 0.542 | 0.606 | 0.324 | 0.363 | 0.337 | 0.483 | 0.178 | 0.55 | 0.459 | 0.628 | 0.434 |
| NCI-H2085 | 0.733 | 0.639 | 0.806 | 0.597 | 1.04 | 1.21 | 1.23 | 0.867 | 0.741 | 0.735 | 0.776 | 0.6 | 0.667 | 0.662 | 0.873 | 0.369 | 0.508 | 0.506 | 0.575 | 0.459 |
| NCI-H2087 | 0.481 | 0.566 | 0.586 | 0.491 | 0.931 | 0.948 | 0.982 | 0.527 | 0.453 | 0.606 | 0.653 | 0.383 | 0.248 | 0.238 | 0.267 | 0.152 | 0.249 | 0.15 | 0.19 | 0.128 |
| NCI-H2126 | 0.691 | 0.557 | 0.638 | 0.674 | 0.814 | 0.785 | 0.929 | 0.809 | 0.819 | 1.08 | 0.931 | 0.772 | 0.858 | 0.805 | 0.862 | 0.554 | 0.468 | 0.453 | 0.593 | 0.466 |
| NCI-H2170 | 0.713 | 0.712 | 0.728 | 0.567 | 0.537 | 0.606 | 0.542 | 0.563 | 0.531 | 0.679 | 0.679 | 0.419 | 0.755 | 0.845 | 0.729 | 0.454 | 0.796 | 1.16 | 1.02 | 0.834 |
| NCI-H2228 | 0.55 | 0.443 | 0.567 | 0.237 | 1.31 | 0.788 | 0.914 | 0.674 | 0.617 | 0.611 | 0.8 | 0.269 | 0.274 | 0.166 | 0.243 | 0.154 | 0.413 | 0.539 | 0.573 | 0.153 |
| NCI-H2347 | 0.379 | 0.318 | 0.371 | 0.339 | 0.696 | 0.843 | 0.794 | 0.543 | 0.491 | 0.59 | 0.606 | 0.497 | 0.587 | 0.55 | 0.618 | 0.505 | 0.28 | 0.316 | 0.282 | 0.26 |
| NCI-H2405 | 0.62 | 0.584 | 0.697 | 0.606 | 0.94 | 0.833 | 0.767 | 0.592 | 0.937 | 0.798 | 0.916 | 0.693 | 0.799 | 0.776 | 0.733 | 0.533 | 0.603 | 0.598 | 0.665 | 0.491 |
| NCI-H3122 | 0.967 | 1.04 | 1.04 | 0.631 | 1.11 | 1.1 | 1.1 | 0.846 | 0.491 | 0.571 | 0.763 | 0.53 | 0.385 | 0.39 | 0.469 | 0.389 | 0.2 | 0.21 | 0.264 | 0.194 |
| PC-3 [JPC-3] | 0.695 | 0.749 | 0.771 | 0.55 | 0.75 | 0.824 | 0.913 | 0.64 | 0.929 | 1.06 | 1.23 | 0.956 | 0.905 | 0.957 | 0.922 | 0.813 | 0.703 | 0.533 | 0.674 | 0.608 |
| PC-14 | 0.522 | 0.892 | 0.806 | 0.519 | 0.851 | 1 | 1.21 | 0.977 | 0.252 | 0.195 | 0.252 | 0.218 | 0.642 | 0.544 | 0.583 | 0.21 | 0.553 | 0.802 | 0.696 | 0.524 |
| RERF-LC-KJ | 0.557 | 0.509 | 0.588 | 0.353 | 0.863 | 0.954 | 0.651 | 0.673 | 0.938 | 0.97 | 0.836 | 0.545 | 0.448 | 0.477 | 0.405 | 0.271 | 0.924 | 0.869 | 0.83 | 0.624 |
| SK-LU-1 | 0.334 | 0.328 | 0.343 | 0.224 | 0.748 | 0.849 | 1.3 | 0.538 | 0.412 | 0.471 | 0.463 | 0.276 | 0.337 | 0.349 | 0.322 | 0.278 | 0.46 | 0.594 | 0.51 | 0.317 |
| SK-MES-1 | 0.517 | 0.547 | 0.605 | 0.415 | 1.14 | 1.18 | 1.56 | 1.21 | 0.648 | 0.665 | 0.935 | 0.333 | 0.919 | 0.98 | 1.04 | 0.4 | 0.561 | 0.493 | 0.514 | 0.407 |
| SW 1573 | 0.473 | 0.689 | 0.584 | 0.252 | 0.97 | 1.12 | 1.13 | 0.598 | 0.456 | 0.589 | 0.523 | 0.22 | 0.177 | 0.22 | 0.191 | 0.19 | 0.518 | 0.565 | 0.627 | 0.149 |
| UMC-11 | 0.442 | 0.526 | 0.488 | 0.314 |  | 0.345 | 0.312 | 0.22 | 0.43 | 0.402 | 0.327 | 0.214 | 0.178 | 0.199 | 0.188 | 0.203 | 0.607 | 0.761 | 0.858 | 0.223 |

Reference: the supplement of paper PMC10307832
